Reference: US10835532B2, “Muscarinic agonists as cognitive enhancers” (The University of Toledo, priority 2008, dated 2020)
Entries after “also recorded” stand apart in the source; their conditions may differ.

How the values were obtained:
[1] = tested on: rats; experiment: Place-visual cue attentional set-shifting task (cognitive flexibility); format: in vivo, rat
From the text: Various neurodegenerative diseases and psychiatric disorders are marked by alterations in brain M1 muscarinic cholinergic receptor function and cognitive deficits including working memory and cognitive flexibility impairments. Alleviating such deficits in conditions such as Alzheimer's disease and schizophrenia has been limited due to a lack of agonists with M1 muscarinic receptor subtype specificity. CDD-102A is a functionally-selective M1 agonist with lower activity at other muscarinic receptor subtypes. The present experiment investigated the effects of systemic treatment with CDD-102A on working memory and/or attentional set-shifting in rats. All testing occurred in a four-arm cross maze. Delayed (30 sec) spontaneous alternation in Long Evans rats was used as a test for working memory. […] A shift between a place and visual cue discrimination was used as an attentional set-shifting test. In this set of experiments, rats received either vehicle or CDD-102A (0.003-0.1 mg/kg) 30 minutes prior to testing in a place-visual cue set-shifting task. A treatment was administered either prior to the acquisition phase or prior to the shift phase. […] To examine cognitive flexibility, animals were evaluated for their ability to learn a place-visual cue task. Local cues in the maze arms included a black board in one arm and white board in the other arm. The cues were switched between the choice arms randomly across trials so the same cue was not always in the same location. Rats first learned to use a place strategy—always enter the same arm to receive a cereal reinforcement. Criterion was set at 10 consecutive correct trials. No treatment was given to rats prior to learning the place strategy test. The results are shown with the two bars on the left side of the graph in FIG. 2, showing that learning of a place-visual cue task. CDD-0102A, at a dose of 0.03 mg/kg decreased the number of trials to criterion (10 consecutive correct choices). Vehicle (N=3), CDD-0102A (N=4). The following day, rats had to inhibit using a place strategy and learn a visual cue strategy. That is, a rat had to choose the arm that contained a particular color cue (e.g., black). The criterion again was set at 10 consecutive correct trials. Rats received either saline (N=3) or CDD-0102A at 0.03 or 0.1 mg/kg (N=4) 30 minutes prior to testing. The results are shown in the middle of FIG. 2. […] Similar studies evaluated the ability of animals to shift from learning a visual cue task to a place strategy. Again criterion was set at 10 consecutive correct trials. Rats received either saline (N=3) or CDD-0102A at 0.03 or 0.1 mg/kg (N=4) 30 minutes prior to testing. The results are shown in the middle of FIG. 3. […] All testing was carried out in a four-arm cross-maze made of 0.6 cm thick black plastic was used for all behavioral testing. The maze was placed on a table that was 72 cm above the floor. Each arm was 55 cm long 10 cm wide. The height of the arm walls was 15.0 cm. Each arm contained a food well (3.2 cm diameter×1.6 cm high) that was 3 cm away from the end wall. Each food-well hole was 2.3 cm in diameter and 1.6 cm deep.

[2] = tested on: Long Evans rats; experiment: Delayed spontaneous alternation in four-arm cross maze (working memory); format: in vivo, rat
From the text: Various neurodegenerative diseases and psychiatric disorders are marked by alterations in brain M1 muscarinic cholinergic receptor function and cognitive deficits including working memory and cognitive flexibility impairments. Alleviating such deficits in conditions such as Alzheimer's disease and schizophrenia has been limited due to a lack of agonists with M1 muscarinic receptor subtype specificity. CDD-102A is a functionally-selective M1 agonist with lower activity at other muscarinic receptor subtypes. The present experiment investigated the effects of systemic treatment with CDD-102A on working memory and/or attentional set-shifting in rats. All testing occurred in a four-arm cross maze. Delayed (30 sec) spontaneous alternation in Long Evans rats was used as a test for working memory. […] A shift between a place and visual cue discrimination was used as an attentional set-shifting test. In this set of experiments, rats received either vehicle or CDD-102A (0.003-0.1 mg/kg) 30 minutes prior to testing in a place-visual cue set-shifting task. To evaluate the effects of muscarinic agonists on memory function in normal animals, rats were tested on a delayed spontaneous alternation task in a modified T-maze. The task takes advantage of rats' natural tendency to alternate. Animals were placed in a 4-arm maze shaped like a “+”. If a rat chose four different arms in four consecutive choices it was scored as an alternation. A delay was inserted between arm choices to help assess memory function. In the delay version of the task, CDD-0102A (a functionally selective M1 agonist) improved memory function in a dose dependent manner (see FIG. 1). All testing was carried out in a four-arm cross-maze made of 0.6 cm thick black plastic was used for all behavioral testing. The maze was placed on a table that was 72 cm above the floor. Each arm was 55 cm long 10 cm wide. The height of the arm walls was 15.0 cm. […] The number and sequence of arm entries was recorded. An arm entry was recorded when all four paws entered an arm. […]

[3] = tested on: rat; experiment: Salivation following i.p. injections in the rat; format: in vivo
From the text: FIG. 6 presents a graph comparing the effects of CDD-0102A on memory function and salivation following i.p. injections in the rat.

[4] = tested on: Alzheimer's subjects; conditions: cited from earlier work
[5] = rats, 0.03 or 0.1 mg/kg 30 minutes prior to testing, compared to controls, hydrochloride
[6] = shift from place cue task to visual cue task, 0.03 and 0.1 mg/kg
[7] = shift from visual cue task to place cue task, 0.03 and 0.1 mg/kg

Row | Lowest dose producing salivation [3] [mg/kg] | Separation between the dose enhancing place-visual cue learning (0.03 mg/kg i.p.) and the lowest dose producing salivation [3] | Structure (SMILES) | Acquisition of a place or visual cue discrimination ([1]; rats, 0.003-0.1 mg/kg 30 minutes prior to the acquisition phase) | Shift between a place and visual cue discrimination ([1]; rats, 0.03 and 0.1 mg/kg, 30 minutes prior to the shift phase) | Trials to criterion (10 consecutive correct choices), shift from place cue task to visual cue task [1, 5] | Trials to criterion (10 consecutive correct choices), shift from visual cue task to place cue task [1, 5] | Ability to initially inhibit a previously relevant strategy and maintain a new, relevant strategy once selected ([1]; rats, shift to the place or to the visual cue strategy) | Number of never-reinforced errors [1, 6] | Number of perseverative errors [1, 6] | Number of regressive errors [1, 6] | Number of never-reinforced errors [1, 7] | Number of perseverative errors [1, 7] | Number of regressive errors [1, 7] | Memory function in the delay version of the spontaneous alternation task ([2]; normal rats, i.p., dose dependent (FIG. 1)) | Delayed spontaneous alternation performance ([2]; rats, 0.1, 0.3 and 1 mg/kg i.p. 30 minutes before testing, 30 sec delay, listed as CDD-102A, hydrochloride) | Number of arm entries (locomotor activity) ([2]; rats, all the doses tested, i.p.) | Side effects associated with activation of M3 receptors (salivation, diarrhea and profuse sweating) ([4]; Alzheimer's subjects, limited subject compliance) | Psychiatric symptoms such as hallucinations ([4]; phase II clinical trials in Alzheimer's subjects)
1 | 0.3 | ten-fold lower | CCc1noc(C2CN=CNC2)n1.Cl (stereo not drawn) [CDD-0102A, 5-(3-ethyl-1,2,4-oxadiazol-5-yl)-1,4,5,6-tetrahydropyrimidine hydrochloride] | did not affect | significantly enhanced | about half the trials; also recorded: decreased | decreased; also recorded: about half the trials | significantly increased | decreased | decreased | decreased | no significant impact | decreased | decreased | improved | significantly enhanced | did not alter |  | 
2 |  |  | CCCCCCOc1nsnc1C1=CCCN(C)C1 [xanomeline] |  |  |  |  |  |  |  |  |  |  |  |  |  |  | produced unwanted side effects | significantly improved
